According to patent US20110269628A1, “Pesticidal Mixtures” (priority 2009, published 2011):

What was measured:
[1] = test system: Imidazolinone tolerant soybeans; test: Chlorophyll content (SPAD chlorophyll-meter), soybean pot experiment; assay type: in vivo; settings: 1 DAA; application at BBCH 14; pyraclostrobin 0.6 L/ha (250 g/L), imazapyr 0.3 L/ha (480 g/L)
[2] = test system: Imidazolinone tolerant soybeans; test: Stomatal conductance gs (infrared gas analyzer), soybean pot experiment; assay type: in vivo; settings: 1 DAA; application at BBCH 14; pyraclostrobin 0.3 L/ha (250 g/L), imazapyr 0.075 L/ha (480 g/L)

Compound	Chlorophyll Content (SPAD) [1]	OE = observed efficacy (%), increase of chlorophyll content vs untreated control [1]	OE = observed efficacy (%), increase of stomatal conductance vs untreated control [2]	SC = Stomatal Conductance (gs) [2]
CC(C)C1(C)N=C(c2ncccc2C(=O)O)NC1=O (centres unmarked) [Imazapyr, imazapyr]	26.5	−1.5%	−3.1%	0.380 mol m^−2s^−1
COC(=O)N(OC)c1ccccc1COc1ccn(-c2ccc(Cl)cc2)n1 [Pyraclostrobin, pyraclostrobin]	27.6	2.6%	7.4%	0.421 mol m^−2s^−1
